Measurements reported in PubChem BioAssay (NCI).
Values joined by “and” are separate entries in the source; they are usually repeats but may differ in a detail not shown here. Equal entries are not always repeated.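 All cell lines were grown in 96-well plates and treated with compound for 48 hours. The concentration for 50% growth inhibition is given as GI50. Definition used: TGI = concentration required for complete inhibition of growth.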

Experiments:
Test in all cases: NCI tumour cell line growth inhibition, 48 h
DMS 273 small cell lung = tested on: DMS 273 small cell lung
P388/ADR leukemia = tested on: P388/ADR leukemia
M19-MEL melanoma = tested on: M19-MEL melanoma
KM20L2 colon = tested on: KM20L2 colon
MDA-N = tested on: MDA-N
SN12K1 renal = tested on: SN12K1 renal
P388 leukemia = tested on: P388 leukemia
SNB-78 CNS = tested on: SNB-78 CNS
T-47D breast = tested on: T-47D breast
DLD-1 colon = tested on: DLD-1 colon
MDA-MB-435 = tested on: MDA-MB-435
RXF-631 renal = tested on: RXF-631 renal

| SMILES | GI50 (DMS 273 small cell lung) [µM] | TGI (DMS 273 small cell lung) | GI50 (P388/ADR leukemia) | TGI (P388/ADR leukemia) | GI50 (M19-MEL melanoma) | TGI (M19-MEL melanoma) | GI50 (KM20L2 colon) [µM] | TGI (KM20L2 colon) | TGI (MDA-N) [µM] | GI50 (SN12K1 renal) [µM] | TGI (P388 leukemia) | GI50 (SNB-78 CNS) | TGI (T-47D breast) [µM] | TGI (DLD-1 colon) [µM] | TGI (SN12K1 renal) [µM] | TGI (MDA-MB-435) [µM] | TGI (SNB-78 CNS) [µM] | TGI (RXF-631 renal) [µM] | GI50 (MDA-MB-435) [µM] |
| --- | --- | --- | --- | --- | --- | --- | --- | --- | --- | --- | --- | --- | --- | --- | --- | --- | --- | --- | --- |
| C[C@H]1C/C=C/[C@H]2[C@@H]3O[C@]3(C)[C@@H](C)[C@H]3[C@H](Cc4ccccc4)NC(=O)[C@]32OC(=O)O/C=C/[C@@](C)(O)C1=O | 0.0125 | > 96.8 µM and 64.2 µM | 0.434 µM and 0.194 µM and 0.69 µM | 10.5 µM and 14 µM and 40.9 µM | 0.0356 µM and 0.025 µM | 24.2 µM and 38.9 µM and 56.8 µM | 0.0125 | > 92.3 µM and 125 µM and > 250 µM | 54 | 0.0125 | 15.3 µM and 125 µM and 45.6 µM | 0.024 µM and 0.025 µM | – | – | – | – | – | – | – |
| c1ccc(CN2CCc3[nH]c4ccccc4c3C2)cc1 | – | > 100 µM | – | – | – | > 82.1 µM | – | 26.3 µM | 44 | – | – | – | 47.2 | > 100 | 29.1 | 46.7 | > 100 | 38.5 | – |
| CCCCCCCCCC[C@@H](O)[C@@H]1CC[C@@H]([C@@H]2CC[C@@H]([C@@H](O)CCCCCCCCCC[C@H](O)CC3=CC(C)OC3=O)O2)O1 (stereo not given in full) | – | 13.5 µM | – | – | – | > 100 µM | – | > 100 µM | – | – | – | – | 40.4 | > 100 | – | – | 56.2 | 19.4 | 4.04 |
| CCOC(=O)C1C=C2O[C@@H]3OC4(CCCCC4)O[C@@H]3C2C2C(=O)CCC(=O)[C@@]12C(=O)OC (stereo not given in full) | – | > 100 µM | – | – | – | > 100 µM | – | > 100 µM | – | – | – | – | – | > 100 | – | – | > 100 | > 100 | – |
| O=C1N2Cc3c4ccc5c3CN3C(=O)N6Cc7c(ccc(c7CN1C6(c1ccccc1)C23c1ccccc1)OCCOCCOc1cc(Br)c(Br)cc1OCCOCCO4)OCCOCCOc1cc(Br)c(Br)cc1OCCOCCO5 (stereo not given) | – | > 100 µM | – | – | – | > 100 µM | – | > 100 µM | – | – | – | – | – | 42.1 | – | – | > 100 | > 100 | – |
| C/C(=N\NC(=O)C[N+](C)(C)C)c1sc(-c2cccnc2)nc1C | – | > 100 µM | – | – | – | > 100 µM | – | > 100 µM | – | – | – | – | – | > 100 | – | – | > 100 | > 100 | – |
| C/C(=N\NC(N)=S)c1ccc(C)c(C)c1 | – | > 100 µM | – | – | – | > 100 µM | – | > 100 µM | – | – | – | – | – | > 100 | – | – | > 100 | > 100 | – |
| CN(C)CCC(/C=C/c1ccccc1)=N\Nc1ccc(Cl)c(Cl)c1 | – | 6.42 µM | – | – | – | 15 µM | – | 4.54 µM | – | – | – | – | – | 11 | – | – | 15.4 | 6.73 | – |
